Test results as given in PMC2099433, “The binding site for neohesperidin dihydrochalcone at the human sweet taste receptor” (BMC Structural Biology, 2007).

How the values were obtained:
[1] = target: T1, rodent sweet taste receptor (Rattus norvegicus, UniProt Q923K1); test: Calcium response, rodent sweet taste receptor; format: cell-based
T1 construct: expressed in transfected cells; host or cells: HEK293T cells stably expressing G16Gust44
Source text: (§1) In order to elucidate the putative binding site for NHDC, we cotransfected mixtures of plasmid DNAs for the rat and human TAS1R2 and TAS1R3 receptor subunits in HEK293T cells stably expressing the chimeric G-protein G16Gust44 and measured cellular calcium responses by fluorometry following bath application of various sweet tasting compounds.
(§2) Figure 1 Chemical structure and calcium responses elicited by neohesperidin dihydrochalcone. (A) Structure of neohesperidin dihydrochalcone. Numbers denote carbon atom positions. […]
(§3) The cDNAs for TAS1Rs tagged at the C-terminus with the herpes simplex virus glycoprotein D (HSV) were transiently transfected into HEK293T cells stably expressing the chimeric G-protein subunit G16Gust44 [44] using Lipofectamine 2000 (Invitrogen, Carlsbad, CA) according to the manufacturer's protocol. […] We monitored calcium mobilization following receptor stimulation with sweet tastants by an automated fluorometric imaging plate reader (FLIPR, Molecular Devices, Sunnyvale, CA). […] The obtained calcium signals were corrected for the response of mock transfected cells and normalized to the fluorescence of cells prior to the application of the stimulus using ΔF/F = (F-F0)/F0. Concentration-response curves and EC50 and IC50 values were calculated in SigmaPlot by nonlinear regression using the function f = ((a-d)/(1+(x/EC50)^nH)+d) and f = (a-b)/[1+(x/IC50)^nH]+b, respectively.

[2] = target: T2, human TAS1R3 and rat Tas1r2 (Homo sapiens, UniProt Q7RTX0); test: Calcium response, interspecies subunit combination; format: cell-based; conditions: 1 mM NHDC
T2 construct: expressed in transfected cells; host or cells: HEK293T cells stably expressing G16Gust44
Source text: as §1, §2, §3

[3] = target: T3, rat Tas1r3 and human TAS1R2 (opposite combination) (Rattus norvegicus, UniProt Q923K1); test: Calcium response, opposite interspecies subunit combination; format: cell-based; conditions: 1 mM NHDC
T3 construct: expressed in transfected cells; host or cells: HEK293T cells stably expressing G16Gust44
Source text: as §1, §2, §3

[4] = system: rat Tas1r3 with heptahelical domain of human TAS1R3, coexpressed with rat Tas1r2; test: Calcium response, chimeric receptor; format: cell-based; conditions: 1 mM NHDC
Source text: as §1, with “compounds. […].” for “compounds.”
(§4) Figure 1 Chemical structure and calcium responses elicited by neohesperidin dihydrochalcone. (A) Structure of neohesperidin dihydrochalcone. Numbers denote carbon atom positions. (B) Representative calcium traces elicited upon stimulation with different concentrations of neohesperidin dihydrochalcone (NHDC) in HEK293T-G16Gust44 cells cotransfected with DNA for hTAS1R2/hTAS1R3. […]
as §3, with “Concentration-response curves and EC50 and IC50 values were calculated in SigmaPlot by nonlinear regression using the function f = ((a-d)/(1+(x/EC50)^nH)+d) and f = (a-b)/[1+(x/IC50)^nH]+b, respectively.” left out

[5] = system: receptors that contain the entire rat Tas1r3 or its heptahelical domain; test: Calcium response, receptors and chimeras with rat Tas1r3 heptahelical domain; format: cell-based, human; conditions: 1 mM NHDC
Source text: as §1, with “compounds. […].” for “compounds.”
as §4
as §3, with “Concentration-response curves and EC50 and IC50 values were calculated in SigmaPlot by nonlinear regression using the function f = ((a-d)/(1+(x/EC50)^nH)+d) and f = (a-b)/[1+(x/IC50)^nH]+b, respectively.” left out

T2 sequence (Q7RTX0 21-852): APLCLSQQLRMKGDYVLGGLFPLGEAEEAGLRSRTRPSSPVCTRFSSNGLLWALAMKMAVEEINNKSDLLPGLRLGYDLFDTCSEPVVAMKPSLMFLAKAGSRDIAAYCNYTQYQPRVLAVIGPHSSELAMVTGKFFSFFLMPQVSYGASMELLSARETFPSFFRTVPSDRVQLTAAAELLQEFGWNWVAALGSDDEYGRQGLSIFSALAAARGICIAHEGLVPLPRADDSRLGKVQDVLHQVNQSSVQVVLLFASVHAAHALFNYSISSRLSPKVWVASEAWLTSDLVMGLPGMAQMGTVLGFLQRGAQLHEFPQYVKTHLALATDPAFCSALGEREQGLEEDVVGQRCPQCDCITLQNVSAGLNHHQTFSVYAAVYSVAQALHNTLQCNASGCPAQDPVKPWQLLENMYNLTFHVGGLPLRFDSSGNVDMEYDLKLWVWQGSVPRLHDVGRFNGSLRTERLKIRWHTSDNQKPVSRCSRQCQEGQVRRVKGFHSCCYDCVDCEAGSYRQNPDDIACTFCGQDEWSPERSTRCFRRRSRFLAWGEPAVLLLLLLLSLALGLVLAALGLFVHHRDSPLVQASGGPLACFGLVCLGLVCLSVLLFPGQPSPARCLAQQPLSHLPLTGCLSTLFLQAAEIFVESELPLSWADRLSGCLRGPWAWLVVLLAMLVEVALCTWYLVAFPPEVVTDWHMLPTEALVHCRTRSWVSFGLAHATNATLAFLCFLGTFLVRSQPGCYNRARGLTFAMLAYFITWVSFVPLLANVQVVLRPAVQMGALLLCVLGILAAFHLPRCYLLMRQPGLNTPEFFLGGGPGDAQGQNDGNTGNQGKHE
T2 sequence (Q9Z0R7 20-843 partner): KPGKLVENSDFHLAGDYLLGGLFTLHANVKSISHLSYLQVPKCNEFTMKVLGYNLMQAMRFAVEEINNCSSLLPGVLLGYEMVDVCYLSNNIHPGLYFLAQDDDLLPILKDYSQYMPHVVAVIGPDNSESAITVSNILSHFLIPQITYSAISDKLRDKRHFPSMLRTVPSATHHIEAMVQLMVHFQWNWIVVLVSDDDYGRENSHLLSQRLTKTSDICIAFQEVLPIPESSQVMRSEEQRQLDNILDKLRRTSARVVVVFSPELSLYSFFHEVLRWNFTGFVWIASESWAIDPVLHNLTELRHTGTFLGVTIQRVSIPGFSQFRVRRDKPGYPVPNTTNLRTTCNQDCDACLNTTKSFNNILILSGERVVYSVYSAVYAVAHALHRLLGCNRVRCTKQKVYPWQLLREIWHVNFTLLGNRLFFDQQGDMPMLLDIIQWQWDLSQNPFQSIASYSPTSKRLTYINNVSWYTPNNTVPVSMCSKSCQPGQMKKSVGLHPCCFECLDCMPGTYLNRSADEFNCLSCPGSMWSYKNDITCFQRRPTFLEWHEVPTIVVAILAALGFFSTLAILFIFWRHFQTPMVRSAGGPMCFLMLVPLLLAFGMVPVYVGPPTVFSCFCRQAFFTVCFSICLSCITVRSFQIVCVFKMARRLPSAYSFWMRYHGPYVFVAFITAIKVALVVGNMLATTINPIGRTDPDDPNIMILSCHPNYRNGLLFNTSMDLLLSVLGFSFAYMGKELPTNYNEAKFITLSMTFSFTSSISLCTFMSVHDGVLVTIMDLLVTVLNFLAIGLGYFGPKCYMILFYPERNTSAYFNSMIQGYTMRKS
T3 sequence (Q923K1 21-858): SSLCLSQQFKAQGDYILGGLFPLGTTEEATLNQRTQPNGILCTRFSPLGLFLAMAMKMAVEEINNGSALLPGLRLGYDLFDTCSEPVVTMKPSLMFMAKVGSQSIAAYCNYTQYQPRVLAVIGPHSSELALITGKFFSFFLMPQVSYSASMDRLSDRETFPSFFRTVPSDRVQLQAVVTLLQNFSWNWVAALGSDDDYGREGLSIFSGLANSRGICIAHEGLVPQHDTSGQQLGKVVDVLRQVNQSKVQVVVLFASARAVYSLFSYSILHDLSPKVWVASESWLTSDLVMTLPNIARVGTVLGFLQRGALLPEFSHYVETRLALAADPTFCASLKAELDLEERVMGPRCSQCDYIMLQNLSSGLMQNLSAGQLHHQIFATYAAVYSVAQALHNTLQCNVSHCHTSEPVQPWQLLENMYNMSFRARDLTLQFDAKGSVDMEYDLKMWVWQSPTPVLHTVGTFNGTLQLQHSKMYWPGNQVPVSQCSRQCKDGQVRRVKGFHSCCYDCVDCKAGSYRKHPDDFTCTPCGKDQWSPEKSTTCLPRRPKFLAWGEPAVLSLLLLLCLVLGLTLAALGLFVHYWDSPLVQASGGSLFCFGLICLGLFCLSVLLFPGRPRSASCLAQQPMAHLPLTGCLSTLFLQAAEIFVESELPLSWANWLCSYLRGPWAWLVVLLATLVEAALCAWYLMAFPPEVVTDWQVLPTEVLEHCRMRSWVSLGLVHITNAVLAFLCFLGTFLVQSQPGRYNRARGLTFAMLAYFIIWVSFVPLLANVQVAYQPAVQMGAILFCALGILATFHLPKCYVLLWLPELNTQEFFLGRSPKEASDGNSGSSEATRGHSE
T3 sequence (Q8TE23 20-839 partner): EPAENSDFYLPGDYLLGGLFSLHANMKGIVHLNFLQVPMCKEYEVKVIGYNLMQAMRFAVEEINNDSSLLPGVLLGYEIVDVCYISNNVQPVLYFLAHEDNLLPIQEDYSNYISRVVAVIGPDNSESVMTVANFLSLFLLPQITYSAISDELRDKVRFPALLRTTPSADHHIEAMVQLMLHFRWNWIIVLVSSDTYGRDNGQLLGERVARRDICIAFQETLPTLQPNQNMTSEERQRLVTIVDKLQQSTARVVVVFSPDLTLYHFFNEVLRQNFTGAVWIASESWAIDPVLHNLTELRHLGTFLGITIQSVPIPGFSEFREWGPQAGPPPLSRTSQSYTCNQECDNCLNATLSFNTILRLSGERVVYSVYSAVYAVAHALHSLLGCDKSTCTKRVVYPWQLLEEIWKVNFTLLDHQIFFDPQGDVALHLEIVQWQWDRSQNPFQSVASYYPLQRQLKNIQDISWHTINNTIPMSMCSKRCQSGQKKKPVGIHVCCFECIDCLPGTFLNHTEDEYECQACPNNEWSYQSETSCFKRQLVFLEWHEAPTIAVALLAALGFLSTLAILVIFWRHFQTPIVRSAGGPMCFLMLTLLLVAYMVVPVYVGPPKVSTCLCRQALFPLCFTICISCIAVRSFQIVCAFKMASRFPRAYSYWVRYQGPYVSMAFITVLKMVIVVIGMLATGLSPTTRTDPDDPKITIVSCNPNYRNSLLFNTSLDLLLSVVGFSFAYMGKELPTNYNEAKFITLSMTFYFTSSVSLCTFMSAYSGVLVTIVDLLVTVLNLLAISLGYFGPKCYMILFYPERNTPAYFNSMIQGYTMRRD
T1 sequence (Q923K1 21-858): as the sequence (Q923K1 21-858) above
T1 sequence (Q9Z0R7 20-843 partner): as the sequence (Q9Z0R7 20-843 partner) above

receptor activation [1]: not the rodent sweet taste receptor
calcium response [2]: elicited calcium responses
calcium response [3]: did not
calcium response [4]: sensitive for NHDC
calcium response [5]: did not respond to NHDC
SMILES: COc1ccc(CCC(=O)c2c(O)cc(O[C@@H]3O[C@H](CO)[C@@H](O)[C@H](O)[C@H]3O[C@@H]3O[C@@H](C)[C@H](O)[C@@H](O)[C@H]3O)cc2O)cc1O [NHDC, neohesperidin dihydrochalcone]
